Test results as given in US9051581B2, “Defense peptides against fungal infection and method of their use” (The Curators of the University of Missouri, priority 2010, dated 2015).

What was measured:
[1] = tested on: P. pachyrhizi urediniospores; assay: In vitro inhibition of urediniospore germ tube growth by phage-display peptide clones (initial assessment, repeated trials); assay type: cell-based, Phakopsora pachyrhizi; conditions: inhibition = 50% or greater germ tube inhibition after 8 h incubation; 10^13 virions ml^−1; field-collected urediniospores
Procedure: Representative, affinity-selected, phage-display peptide clones were initially assessed in vitro for the ability to inhibit urediniospore germ tube growth. Two-hundred fifty phage clones, randomly chosen from the final selection round, were amplified by E. coli infection, twice purified using PEG-precipitation, and re-suspended in sterile deionized water. Phage concentrations were calculated from UV absorbance measurements as virions μl^−1 (2).
A 25-μl water droplet containing ≈300 non-germinated urediniospores collected from soybean leaves in Florida was incubated on a microscope slide in the presence of a phage clone at a concentration equivalent to 10^13 virions ml^−1. […] Urediniospores were visualized using an Olympus Stereo Zoom Microscope (model SZH; Olympus Optical Co., LTD, Tokyo, Japan) at 50× magnification under transmitted light. Images of germinating urediniospores were captured in random microscope fields with a Spot Insight Color digital camera (Diagnostic Instruments, Inc., Sterling Heights, Mich.). Images were manipulated for viewing using Spot imaging software (version 4.0.3) set up with auto exposure to provide contrast of developing germ tubes against a green background. Comparative germination was assessed in three separate experiments. Phage clones that induced greater than 50% reduction in germ tube length (by visual estimation) compared to growth in water were evaluated in seven additional experiments.

[2] = tested on: Phakopsora pachyrhizi urediniospores; assay: In vitro inhibition of urediniospore germ tube growth by ZmCKX1-peptides; assay type: cell-based; conditions: ZmCKX1 scaffold-display format
Procedure: Purified ZmCKX1-Sp2 and ZmCKX1-Sp39 peptides were assessed in vitro for the ability to inhibit urediniospore germination. A 25-μl water droplet containing 300 freshly harvested MOS-2008 urediniospores was incubated on a glass slide in the presence of either ZmCKX1-Sp2 or ZmCKX1-Sp39. Control treatments included urediniospores incubated in water or in the presence of ZmCKX1 alone. Germ tube growth was visualized over time and quantified by image capture and analyses as described previously.

[3] = tested on: Phakopsora pachyrhizi urediniospores; assay: Effect of phage-display peptide concentration on urediniospore germ tube elongation in vitro; assay type: cell-based; conditions: for effective peptide concentration equivalent at maximal inhibition, phage-display format: five peptide copies per M13 virion at ≈10^13 virions ml^−1
Procedure: The bioactivities of two inhibitory phage-display peptide clones, M13-Sp2 and M13-Sp39, identified in initial assessments were estimated over a range of concentrations including 0.5, 1.0, and 1.5×10^13 virions ml^−1. As before, a 25-μl water droplet containing ≈300 urediniospores was incubated at 22° C. (4) on a microscope slide in the presence of M13-Sp2 or M13-Sp39 at each concentration. Urediniospores in these and all subsequent experiments were derived from the Missouri population, MOS-2008. Control treatments included urediniospores incubated either in water or an equivalent concentration of phage from an unselected library. Spore germination and germ tube growth were visualized over time and quantified by image capture and analyses using MetaMorph software (Version 6.2r6, Universal Imaging, Downington, Pa.). Germ tube length was measured using a line scan function based on conversion of image pixels to length. Germ tube length was averaged from 50 randomly selected germinated urediniospores in each image and across four experimental replicates per treatment.

In the case of “ASTIGNLMPGHS (Random peptide insert) [Sp14, 12-mer phage-display selected peptide]”, the “Frequency of germ tube inhibition over 10 trials” value [1] was 5.
For “DHIRISTSYKSP (Random peptide insert) [Sp51, 12-mer phage-display selected peptide]”, the “Frequency of germ tube inhibition over 10 trials” value [1] was 3.
“DRFTSDLRAPDS (Random peptide insert) [Sp61, 12-mer phage-display selected peptide]” was tested, and the “Frequency of germ tube inhibition over 10 trials” value [1] was 3.
In the case of “FDPHEPTNTRSP (Random peptide insert) [Sp15, 12-mer phage-display selected peptide]”, the “Frequency of germ tube inhibition over 10 trials” value [1] was 6.
In the case of “LTKEPATGRAML (Random peptide insert) [Sp18, 12-mer phage-display selected peptide]”, the “Frequency of germ tube inhibition over 10 trials” value [1] was 6.
With “MLESHAWPPRAI (Random peptide insert) [Sp2]” the “concentration of maximum germ tube inhibition, displayed on ZmCKX1 scaffold” value [2] was 115 µM, the “effective peptide concentration equivalent at maximal inhibition, phage-display format” value [3] was 10 nM and the “concentration of maximal inhibition of germ tube elongation, phage-display format” value [3] was “≈ 10^13 virions ml^−1”. The “Frequency of germ tube inhibition over 10 trials” value [1] was 8.
“STVASLGKPTKI (Random peptide insert) [Sp8, 12-mer phage-display selected peptide]” was tested, and the “Frequency of germ tube inhibition over 10 trials” value [1] was 4.
For “TFDRHILDTRGS (Random peptide insert) [Sp6, 12-mer phage-display selected peptide]”, the “Frequency of germ tube inhibition over 10 trials” value [1] was 3.
With “TPTRSLDSPHNM (Random peptide insert) [Sp59, 12-mer phage-display selected peptide]” the “Frequency of germ tube inhibition over 10 trials” value [1] was 4.
“YISPLPNAATIS (Random peptide insert) [Sp5, 12-mer phage-display selected peptide]” was tested, and the “Frequency of germ tube inhibition over 10 trials” value [1] was 3.
In the case of “YNKPSFQDHSVI (Random peptide insert) [Sp39]”, the “concentration of maximum germ tube inhibition, displayed on ZmCKX1 scaffold” value [2] was 115 µM, the “effective peptide concentration equivalent at maximal inhibition, phage-display format” value [3] was 10 nM and the “concentration of maximal inhibition of germ tube elongation, phage-display format” value [3] was “≈ 10^13 virions ml^−1”. The “Frequency of germ tube inhibition over 10 trials” value [1] was 7.
